Four compounds from patent publication US11091494B2, “Crystal form of acalabrutinib and preparation method and use thereof” (Crystal Pharmaceutical (Suzhou) Co., Ltd., priority 2018, dated 2021) can be followed below.

What all share (format): physicochemical
A short description of data set [1]: Compressibility (tensile strength of compressed tablet). As to conditions: about 80 mg, φ6 mm round tooling, compressed at 10 kN. On the procedure:
Approximately 80 mg of Form A and Form I in WO2017002095A1 were weighed into the dies of a φ6 mm round tooling, compressed at 10 kN manually, then stored in a desiccator for 24 hours until complete elastic recovery. Radial crushing force (hardness, H) was tested with an intelligent tablet hardness tester. Diameter (D) and thickness (L) were tested with a caliper. Tensile strength of the powder that with different hardness was calculated with the following formula: T=2H/πDL. Under a certain force, the greater the tensile strength, the better the compressibility.
Approximately 80 mg of Form D and Form I in WO2017002095A1 were weighed into the dies of a φ6 mm round tooling, compressed at 10 kN manually, and then stored in a desiccator for 24 hours until complete elastic recovery. Radial crushing force (hardness, H) was tested with an intelligent tablet hardness tester. Diameter (D) and thickness (L) were tested with a caliper. Tensile strength of the powder with different hardness was calculated with the following formula: T=2H/πDL. Under a certain force, the greater the tensile strength, the better the compressibility.
Approximately 80 mg of Form F and Form I in WO2017002095A1 were weighed into the dies of a φ6 mm round tooling, compressed at 10 kN manually, and then stored in a desiccator for 24 hours until complete elastic recovery. Radial crushing force (hardness, H) was tested with an intelligent tablet hardness tester. Diameter (D) and thickness (L) were tested with caliper. Tensile strength of the powder with different hardness was calculated with the following formula: T=2H/πDL. Under a certain force, the greater the tensile strength, the better the compressibility.
Approximately 80 mg of Form G and Form I of WO2017002095A1 were weighed into the dies of a φ6 mm round tooling, compressed at 10 kN manually, and then stored in a desiccator for 24 hours until complete elastic recovery. Radial crushing force (hardness, H)) was tested with an intelligent tablet hardness tester. Diameter (D) and thickness (L) were tested with caliper. Tensile strength of the powder with different hardness was calculated with the following formula: T=2H/πDL. Under a certain force, the greater the tensile strength, the better the compressibility.
Approximately 80 mg of Form CS15 and Form I in WO2017002095A1 were weighed into the dies of a φ6 mm round tooling, compressed at 10 kN manually, and then stored in a desiccator for 24 hours until complete elastic recovery. Radial crushing force (hardness, H) was tested with an intelligent tablet hardness tester. Diameter (D) and thickness (L) were tested with caliper. Tensile strength of the powder with different hardness was calculated with the following formula: T=2H/πDL. Under a certain force, the greater the tensile strength, the better the compressibility.

Data set [2] is described as follows: Intrinsic dissolution rate in pH 2.5 HCl/NaCl aqueous solution. As to conditions: for Cumulative dissolution / IDR (intrinsic dissolution rate): pH 2.5 HCl/NaCl, 37° C.; for Cumulative dissolution: 0.5 cm^2 pellet; for IDR relative to that of Form I in WO2017002095A1: pH 2.5 HCl/NaCl solution; for IDR (intrinsic dissolution rate): slope over 0-45 minutes. The method, then:
Approximately 200 mg of Form A and Form I in WO2017002095A1 were added into the die, compressed at 10 kN and held for 1 minute to obtain a pellet having a surface area of 0.5 cm^2. The whole tool with the pellet was transferred to a dissolution apparatus to test the intrinsic dissolution rate. The slope (mg/min) was calculated according to the data within 0-45 minutes. Intrinsic dissolution rate (IDR, mg/min/cm^2) was further calculated according to the slope.
Approximately 200 mg of Form D and Form I in WO2017002095A1 were added into the die, compressed at 10 kN and held for 1 minute to obtain a pellet having a surface area of 0.5 cm^2. The whole tool with the pellet was transferred to a dissolution apparatus to test the intrinsic dissolution rate. The slope (mg/min) was calculated according to the data within 0-45 minutes. Intrinsic dissolution rate (IDR, mg/min/cm^2) was further calculated according to the slope.
Approximately 200 mg of Form F and Form I in WO2017002095A1 were added into the die, compressed at 10 kN and held for 1 minute to obtain a pellet having a surface area of 0.5 cm^2. The whole tool with the pellet was transferred to a dissolution apparatus to test the intrinsic dissolution. The slope (mg/min) was calculated according to the data within 0-45 minutes. Intrinsic dissolution rate (IDR, mg/min/cm^2) was further calculated according to the slope.
Approximately 200 mg of Form G and Form I in WO2017002095A1 were added into the die, compressed at 10 kN and held for 1 minute to obtain a pellet having a surface area of 0.5 cm^2. The whole tool with the pellet was transferred to a dissolution apparatus to test the intrinsic dissolution. The slope (mg/min) was calculated according to the data within 0-45 minutes. Intrinsic dissolution rate (IDR, mg/min/cm^2) was further calculated according to the slope.
Approximately 200 mg of Form CS15 and Form I in WO2017002095A1 were added into the die, compressed at 10 kN and held for 1 minute to obtain a pellet having a surface area of 0.5 cm^2. The whole tool with the pellet was transferred to a dissolution apparatus to test the intrinsic dissolution. The slope (mg/min) was calculated according to the data within 0-45 minutes. Intrinsic dissolution rate (IDR, mg/min/cm^2) was further calculated according to the slope.

Data set [3] in a line: Flowability (compressibility index / Carr index). The following applies: for Flowability: by compressibility index; for Compressibility index: c=(ρf−ρ0)/ρf. The method, then: Compressibility index or Carr index is usually utilized to evaluate the flowability of powder and granules during the drug product process. Compressibility index test method is as follows: a certain amount of powder was added into a measuring cylinder and bulk volume was recorded. Then the powder was tapped to make it in the tightest state and the tapped volume was recorded. The bulk density (ρ0) and tapped density (ρf) were calculated. Compressibility index was calculated according to c=(ρf−ρ0)/ρf.
Compressibility index or Carr index is usually utilized to evaluate the flowability of powder and granules during the drug product process. Compressibility index test method is as follows: a certain amount of powder was added into a measuring cylinder and bulk volume was recorded. Then the powder was tapped to make it in the tightest state and the tapped volume was recorded. The bulk density (ρ0), tapped density (ρf) were calculated and compressibility index was calculated according to c=(pf-po)/pf.
Compressibility index or Carr index is usually utilized to evaluate the flowability of powder and granules during the drug product process. Compressibility index test method is as follows: a certain amount of powder was added into a measuring cylinder and bulk volume was recorded. Then the powder was tapped to make it in the tightest state and the tapped volume was recorded. The bulk density (ρ0), tapped density (ρf) were calculated and compressibility index was calculated according to c=(ρf−ρ0)/ρf.

As to `CC#CC(=O)N1CCC[C@H]1c1nc(-c2ccc(C(=O)Nc3ccccn3)cc2)c2c(N)nccn12` [Form CS15, (S)-4-(8-amino-3-(1-(but-2-ynoyl)pyrrolidin-2-yl)imidazo[1,5-a]pyrazin-1-yl)-N-(pyridin-2-yl)benzamide], the Tensile strength in data set [1] worked out at 1.18 MPa. For the same compound, the Cumulative dissolution is 0.00 mg in data set [2] (0 min); 1.06 mg in data set [2] (5 min); 2.34 mg in data set [2] (10 min); 4.20 mg in data set [2] (15 min); 5.60 mg in data set [2] (20 min); 7.89 mg in data set [2] (25 min). Also, the values for the Cumulative dissolution in data set [2] (30 min), in data set [2] (35 min) and in data set [2] (45 min) were 8.86 mg, 10.60 mg and 12.41 mg, respectively. For the same compound, the “IDR relative to that of Form I in WO2017002095A1” value (“IDR relative to that of Form I” below) in data set [2] was 1.6 times. Moreover, the “IDR (intrinsic dissolution rate)” value in data set [2] was determined as 0.5778 mg/min/cm^2.

Compound `CC#CC(=O)N1CCC[C@H]1c1nc(-c2ccc(C(=O)Nc3ccccn3)cc2)c2c(N)nccn12` [Form F, (S)-4-(8-amino-3-(1-(but-2-ynoyl)pyrrolidin-2-yl)imidazo[1,5-a]pyrazin-1-yl)-N-(pyridin-2-yl)benzamide] gave a Tensile strength in data set [1] of 1.02 MPa. Further, the “Bulk density (ρ0)” value in data set [3] came to 0.185 g/mL. The “Tapped density (ρf)” value in data set [3] is 0.216 g/mL. Also, in data set [3], the Flowability result is “Good (11-15)”. This compound came in with a Compressibility index in data set [3] of 14%. Moreover, the Cumulative dissolution in data set [2] (0 min) is 0.00 mg; in data set [2] (5 min), 1.31 mg; in data set [2] (10 min), 2.47 mg; in data set [2] (15 min), 3.99 mg; in data set [2] (20 min), 5.30 mg; in data set [2] (25 min), 6.50 mg. Further, the Cumulative dissolution in data set [2] (30 min) stood at 7.26 mg; in data set [2] (35 min), 8.74 mg; in data set [2] (45 min) it was 10.44 mg. For the same compound, in data set [2], the “IDR relative to that of Form I” value was 1.3 times. Also, the “IDR (intrinsic dissolution rate)” value in data set [2] is on record as 0.4898 mg/min/cm^2.

As to `CC#CC(=O)N1CCC[C@H]1c1nc(-c2ccc(C(=O)Nc3ccccn3)cc2)c2c(N)nccn12` [Form G, (S)-4-(8-amino-3-(1-(but-2-ynoyl)pyrrolidin-2-yl)imidazo[1,5-a]pyrazin-1-yl)-N-(pyridin-2-yl)benzamide], the Tensile strength in data set [1] is given as 1.62 MPa. In addition, in data set [3], the “Bulk density (ρ0)” value is reported as 0.443 g/mL. The “Tapped density (ρf)” value in data set [3] amounted to 0.488 g/mL. In addition, the Flowability entry in data set [3] was “Good (11-15)”. In data set [3], this compound came in with a Compressibility index of 11%. Also, the Cumulative dissolution in data set [2] (0 min) is 0.00 mg; in data set [2] (5 min), 1.28 mg; in data set [2] (10 min) it was 2.36 mg; in data set [2] (15 min), 3.68 mg; in data set [2] (20 min), 4.76 mg; in data set [2] (25 min), 5.51 mg. In addition, the Cumulative dissolution in data set [2] (30 min) is recorded as 6.71 mg; in data set [2] (35 min), 7.65 mg; in data set [2] (45 min) it was 9.50 mg. In data set [2], the “IDR relative to that of Form I” value came to 1.2 times. Further, the “IDR (intrinsic dissolution rate)” value in data set [2] was 0.4396 mg/min/cm^2.

As for `CC#CC(=O)N1CCC[C@H]1c1nc(-c2ccc(C(=O)Nc3ccccn3)cc2)c2c(N)nccn12` [Form A, (S)-4-(8-amino-3-(1-(but-2-ynoyl)pyrrolidin-2-yl)imidazo[1,5-a]pyrazin-1-yl)-N-(pyridin-2-yl)benzamide], the Tensile strength in data set [1] turned out to be 1.35 MPa. For the same compound, in data set [3], the “Bulk density (ρ0)” value was determined as 0.269 g/mL. Moreover, the “Tapped density (ρf)” value in data set [3] came out at 0.303 g/mL. For the same compound, the Flowability entry in data set [3] is reported as “Good (11-15)”. In data set [3], this compound showed a Compressibility index of 11%. In addition, the Cumulative dissolution in data set [2] (0 min) is listed as 0.00 mg; in data set [2] (5 min), 1.13 mg; in data set [2] (10 min), 2.42 mg; in data set [2] (15 min) it was 3.80 mg; in data set [2] (20 min), 4.73 mg; in data set [2] (25 min), 5.79 mg. Moreover, the Cumulative dissolution in data set [2] (30 min) stood at 6.72 mg; in data set [2] (35 min), 7.83 mg; in data set [2] (45 min), 9.93 mg. The “IDR relative to that of Form I” value in data set [2] is listed as 1.2 times. In data set [2], the “IDR (intrinsic dissolution rate)” value is recorded as 0.4520 mg/min/cm^2.
